Experimental data taken from US4526989A, “1,4-Bis (substituted-amino)-5,8-dihydroxy-anthraquinones and leuco bases thereof” (priority 1979, dated 1985).
Like-named read-outs stand apart in the source and are kept apart here.

Key:
[1] = test system: lymphocytic leukemia P388; assay: Lymphocytic leukemia P388 test (intraperitoneal administration); type: in vivo, DBA/2 mice
Method: The animals used are DBA/2 mice all of one sex, weighing a minimum of 17 g. and all within a 3 gram weight range. There are 5 or 6 animals per test group. The tumor transplant is by intraperitoneal injection of 0.1 ml. of dilute ascitic fluid containing 10^6 cells of lymphocytic leukemia P388. The test compounds are administered intraperitoneally on days one, 5 and 9 (relative to tumor inoculation) at various doses. The animals are weighed and survivors are recorded on a regular basis for 30 days. The median survival time and the ratio of survival time for treated (T)/control (C) animals are calculated.

melanotic melanoma B16 = assay: Melanotic Melanoma B16 test; type: in vivo, C57BC/6 mice
Method: The animals used are C57BC/6 mice, all of the same sex, weighing a minimum of 17 g. and all within a 3-g. weight range. There are normally 10 animals per test group. A one-gram portion of melanotic melanoma B16 tumor is homogenized in 10 ml. of cold balanced salt solution and a 0.5-ml. aliquot of the homogenate is implanted intraperitoneally into each of the test mice. The test compounds are administered intraperitoneally on days one through 9 (relative to tumor inoculation) at various doses. The animals are weighed and survivors are recorded on a regular basis for 60 days. The median survival time and the ratio of survival time for treated (T)/control (C) animals are calculated. […] The criterion for efficacy is T/C×100≥125%.

[2] = 12.5 mg./kg. i.p., days 1, 5 and 9
[3] = 25 mg./kg. i.p., days 1, 5 and 9
[4] = 50 mg./kg. i.p., days 1, 5 and 9
[5] = 100 mg./kg. i.p., days 1, 5 and 9
[6] = 6 mg./kg. i.p., days 1 through 9
[7] = 12 mg./kg. i.p., days 1 through 9
[8] = 25 mg./kg. i.p., days 1 through 9
[9] = 50 mg./kg. i.p., days 1 through 9
[10] = 12 mg./kg. i.p., days 1, 5 and 9
[11] = Mus musculus, P388, ip, read-out: T/C × 100
[12] = Mus musculus, P388, ip, 25 mg./kg. i.p., days 1, 5 and 9, efficacy ≥125%, read-out: T/C × 100
[13] = Mus musculus, P388, ip, 50 mg./kg. i.p., days 1, 5 and 9, efficacy ≥125%, read-out: T/C × 100
[14] = 200 mg./kg. i.p., days 1, 5 and 9
[15] = Mus musculus, P388, ip, 100 mg./kg. i.p., days 1, 5 and 9, efficacy ≥125%, read-out: T/C × 100
[16] = Mus musculus, P388, ip, 200 mg./kg. i.p., days 1, 5 and 9, efficacy ≥125%, read-out: T/C × 100
[17] = Mus musculus, ip, 6 mg./kg. i.p., days 1 through 9, efficacy ≥125%, read-out: T/C × 100
[18] = Mus musculus, ip, 25 mg./kg. i.p., days 1 through 9, efficacy ≥125%, read-out: T/C × 100
[19] = Mus musculus, ip, 50 mg./kg. i.p., days 1 through 9, efficacy ≥125%, read-out: T/C × 100
[20] = Mus musculus, P388, ip, 12.5 mg./kg. i.p., days 1, 5 and 9, efficacy ≥125%, read-out: T/C × 100
[21] = 1.56 mg./kg. i.p., days 1, 5 and 9
[22] = 6.25 mg./kg. i.p., days 1, 5 and 9
[23] = Mus musculus, P388, ip, 6.25 mg./kg. i.p., days 1, 5 and 9, efficacy ≥125%, read-out: T/C × 100

CC(C)NCCNC1=C2C(=O)c3c(O)ccc(O)c3C(=O)C2=C(NCCNC(C)C)CC1 [Leuco-1,4-bis[2-(2-isopropylamino)ethylamino]-5,8-dihydroxyanthraquinone]
Median Survival Time [1, 2]: 15.0 days
T/C × 100 ([1]; 12.5 mg./kg. i.p., days 1, 5 and 9, efficacy ≥125%): 136%
Median Survival Time [1, 3]: 17.0 days
T/C × 100 ([1]; 25 mg./kg. i.p., days 1, 5 and 9, efficacy ≥125%): 155%
Median Survival Time [1, 4]: 19.0 days
T/C × 100 ([1]; 50 mg./kg. i.p., days 1, 5 and 9, efficacy ≥125%): 173%
Median Survival Time [1, 5]: 8.0 days
T/C × 100 ([1]; 100 mg./kg. i.p., days 1, 5 and 9, efficacy ≥125%): 73%
Median Survival Time (melanotic melanoma B16; [6]): 25.0 days
T/C × 100 (melanotic melanoma B16; 6 mg./kg. i.p., days 1 through 9, efficacy ≥125%): 151%
Median Survival Time (melanotic melanoma B16; [7]): 30.0 days
T/C × 100 (melanotic melanoma B16; 12 mg./kg. i.p., days 1 through 9, efficacy ≥125%): 182%
Median Survival Time (melanotic melanoma B16; [8]): 31.0 days
T/C × 100 (melanotic melanoma B16; 25 mg./kg. i.p., days 1 through 9, efficacy ≥125%): 188%
Median Survival Time (melanotic melanoma B16; [9]): 6.5 days
T/C × 100 (melanotic melanoma B16; 50 mg./kg. i.p., days 1 through 9, efficacy ≥125%): 39%

NCCNC1=C2C(=O)c3c(O)ccc(O)c3C(=O)C2=C(NCCN)CC1 [Leuco-1,4-bis(2-aminoethylamino)-5,8-dihydroxyanthraquinone]
Median Survival Time [1, 10]: 18.0 days
Median Survival Time [1, 3]: 19.0 days
Median Survival Time [1, 4]: 23.0 days
Median Survival Time [1, 5]: 19.0 days
response vs control in vivo at 12 mg/kg [1, 11]: 150%
response vs control in vivo at 100 mg/kg [1, 11]: 158%
response vs control in vivo at 25 mg/kg [1, 12]: 158%
response vs control in vivo at 50 mg/kg [1, 13]: 192%
Median Survival Time (melanotic melanoma B16; [7]): 32.0 days
response vs control in vivo at 12 mg/kg (melanotic melanoma B16; Mus musculus, ip, read-out: T/C × 100): 200%

NCCCNC1=C2C(=O)c3c(O)ccc(O)c3C(=O)C2=C(NCCCN)CC1 [Leuco-1,4-bis(3-aminopropylamino)-5,8-dihydroxyanthraquinone]
Median Survival Time [1, 10]: 16.0 days
Median Survival Time [1, 3]: 18.0 days
Median Survival Time [1, 4]: 16.0 days
Median Survival Time [1, 5]: 18.0 days
Median Survival Time [1, 14]: 18.0 days
response vs control in vivo at 12 mg/kg ([1]; Mus musculus, P388, ip, 12 mg./kg. i.p., days 1, 5 and 9, efficacy ≥125%, read-out: T/C × 100): 133%
response vs control in vivo at 25 mg/kg [1, 12]: 150%
response vs control in vivo at 50 mg/kg [1, 13]: 133%
response vs control in vivo at 100 mg/kg [1, 15]: 150%
response vs control in vivo at 200 mg/kg [1, 16]: 150%
Median Survival Time (melanotic melanoma B16; [6]): 22.5 days
Median Survival Time (melanotic melanoma B16; [7]): 23.5 days
Median Survival Time (melanotic melanoma B16; [8]): 27.0 days
Median Survival Time (melanotic melanoma B16; [9]): 31.5 days
response vs control in vivo at 6 mg/kg (melanotic melanoma B16; [17]): 141%
response vs control in vivo at 12 mg/kg (melanotic melanoma B16; Mus musculus, ip, 12 mg./kg. i.p., days 1 through 9, efficacy ≥125%, read-out: T/C × 100): 147%
response vs control in vivo at 25 mg/kg (melanotic melanoma B16; [18]): 169%
response vs control in vivo at 50 mg/kg (melanotic melanoma B16; [19]): 197%

O=C1C2=C(NCCN3CCNCC3)CCC(NCCN3CCNCC3)=C2C(=O)c2c(O)ccc(O)c21 [Leuco-1,4-bis[2-(1-piperazinyl)ethylamino]-5,8-dihydroxyanthraquinone]
Median Survival Time [1, 2]: 14.0 days
Median Survival Time [1, 3]: 15.0 days
Median Survival Time [1, 4]: 16.0 days
Median Survival Time [1, 5]: 21.0 days
Median Survival Time [1, 14]: 7.0 days
response vs control in vivo at 12.5 mg/kg [1, 20]: 156%
response vs control in vivo at 25 mg/kg [1, 12]: 167%
response vs control in vivo at 50 mg/kg [1, 13]: 178%
response vs control in vivo at 100 mg/kg [1, 15]: 233%
response vs control in vivo at 200 mg/kg [1, 16]: 78%
Median Survival Time (melanotic melanoma B16; 3 mg./kg. i.p., days 1 through 9): 20.5 days
Median Survival Time (melanotic melanoma B16; [6]): 22.0 days
Median Survival Time (melanotic melanoma B16; 12.5 mg./kg. i.p., days 1 through 9): 26.0 days
Median Survival Time (melanotic melanoma B16; [8]): 30.5 days
Median Survival Time (melanotic melanoma B16; [9]): 34.5 days
response vs control in vivo at 3 mg/kg (melanotic melanoma B16; Mus musculus, ip, 3 mg./kg. i.p., days 1 through 9, efficacy ≥125%, read-out: T/C × 100): 121%
response vs control in vivo at 6 mg/kg (melanotic melanoma B16; [17]): 129%
response vs control in vivo at 12.5 mg/kg (melanotic melanoma B16; Mus musculus, ip, 12.5 mg./kg. i.p., days 1 through 9, efficacy ≥125%, read-out: T/C × 100): 153%
response vs control in vivo at 25 mg/kg (melanotic melanoma B16; [18]): 179%
response vs control in vivo at 50 mg/kg (melanotic melanoma B16; [19]): 203%

O=C1C2=C(NCCN3CCOCC3)CCC(NCCN3CCOCC3)=C2C(=O)c2c(O)ccc(O)c21 [Leuco-1,4-bis(2-morpholinoethylamino)-5,8-dihydroxyanthraquinone]
Median Survival Time [1, 3]: 12.0 days
Median Survival Time [1, 4]: 11.0 days
Median Survival Time [1, 5]: 12.0 days
Median Survival Time [1, 14]: 13.0 days
response vs control in vivo at 25 mg/kg [1, 12]: 126%
response vs control in vivo at 50 mg/kg [1, 13]: 116%
response vs control in vivo at 100 mg/kg [1, 15]: 126%
response vs control in vivo at 200 mg/kg [1, 16]: 137%

CNCCNCCNc1ccc(NCCNCCNC)c2c1C(=O)c1c(O)ccc(O)c1C2=O.Cl.Cl.Cl.Cl [1,4-Bis[2-(2-methylaminoethylamino)ethylamino]-5,8-dihydroxyanthraquinone Tetrahydrochloride]
Median Survival Time ([1]; 1.12 mg./kg. i.p., days 1, 5 and 9): 13.5 days
Median Survival Time [1, 21]: 13.0 days
Median Survival Time [1, 22]: 16.0 days
Median Survival Time [1, 2]: 17.0 days
Median Survival Time [1, 3]: 19.5 days
Median Survival Time [1, 4]: 22.0 days
Median Survival Time [1, 5]: 22.0 days
response vs control in vivo at 1.12 mg/kg ([1]; Mus musculus, P388, ip, 1.12 mg./kg. i.p., days 1, 5 and 9, efficacy ≥125%, read-out: T/C × 100): 135%
response vs control in vivo at 1.56 mg/kg ([1]; Mus musculus, P388, ip, 1.56 mg./kg. i.p., days 1, 5 and 9, efficacy ≥125%, read-out: T/C × 100): 130%
response vs control in vivo at 6.25 mg/kg [1, 23]: 160%
response vs control in vivo at 12.5 mg/kg [1, 20]: 170%
response vs control in vivo at 25 mg/kg [1, 12]: 195%
response vs control in vivo at 50 mg/kg [1, 13]: 220%
response vs control in vivo at 100 mg/kg [1, 15]: 220%

Cl.Cl.O=C1c2c(O)ccc(O)c2C(=O)c2c(NCCNCCCO)ccc(NCCNCCCO)c21 [1,4-Bis[2-(3-hydroxy-1-propylamino)ethylamino]-5,8-dihydroxyanthraquinone dihydrochloride]
Median Survival Time ([1]; 0.78 mg./kg. i.p., days 1, 5 and 9): 21.5 days
Median Survival Time [1, 21]: 22.0 days
Median Survival Time ([1]; 3.1 mg./kg. i.p., days 1, 5 and 9): 25.0 days
Median Survival Time [1, 22]: 26.0 days
Median Survival Time [1, 2]: > 30.0 days
Median Survival Time [1, 3]: 8.5 days
response vs control in vivo at 1.56 mg/kg [1, 11]: 200%
response vs control in vivo at 0.78 mg/kg ([1]; Mus musculus, P388, ip, 0.78 mg./kg. i.p., days 1, 5 and 9, efficacy ≥125%, read-out: T/C × 100): 195%
response vs control in vivo at 3.1 mg/kg ([1]; Mus musculus, P388, ip, 3.1 mg./kg. i.p., days 1, 5 and 9, efficacy ≥125%, read-out: T/C × 100): 227%
response vs control in vivo at 6.25 mg/kg [1, 23]: 236%
response vs control in vivo at 12.5 mg/kg [1, 20]: > 273%
response vs control in vivo at 25 mg/kg [1, 12]: 77%

O=C1C2=C(NCCCNCCO)CCC(NCCCNCCO)=C2C(=O)c2c(O)ccc(O)c21 [Leuco-1,4-bis[3-(2-hydroxyethylamino)-1-propylamino]-5,8-dihydroxyanthraquinone]
Median Survival Time ([1]; 3.12 mg./kg. i.p., days 1, 5 and 9): 15.0 days
Median Survival Time [1, 22]: 18.0 days
Median Survival Time [1, 2]: 19.0 days
Median Survival Time [1, 3]: 18.5 days
Median Survival Time [1, 4]: 25.0 days
Median Survival Time [1, 5]: 27.5 days
Median Survival Time [1, 14]: 33.5 days
response vs control in vivo at 3.12 mg/kg ([1]; Mus musculus, P388, ip, 3.12 mg./kg. i.p., days 1, 5 and 9, efficacy ≥125%, read-out: T/C × 100): 136%
response vs control in vivo at 6.25 mg/kg [1, 23]: 164%
response vs control in vivo at 12.5 mg/kg [1, 20]: 173%
response vs control in vivo at 25 mg/kg [1, 12]: 168%
response vs control in vivo at 50 mg/kg [1, 13]: 227%
response vs control in vivo at 100 mg/kg [1, 15]: 250%
response vs control in vivo at 200 mg/kg [1, 16]: 305%
